The source of these data is patent publication US20200246314A1, “DYSLIPIDEMIA THERAPEUTIC AGENT” (KOWA COMPANY, LTD., priority 2014, published 2020).

The structures appear in SMILES notation.

The assay concerns LDL-C in plasma. The assay can be described thus: Effect on LDL-C of rat in combination use of compound A and niacin. The class given is in vivo. The note with it: male SD rats, oral once per day for one week, blood 4 h after final administration; single agent: compound A 0.1 mg/kg or nicotinic acid 100 mg/kg. The text has this:
Male rats (6-week-old, Jcl:SD, CLEA Japan, Inc.) were used for an experiment. Blood was collected from the jugular vein under satiation. The rats were divided into four groups (N=8) based on TG and TC in plasma and a body weight. For one week from the next day, each of a solvent (0.5% methylcellulose aqueous solution: MC), compound A alone, nicotinic acid alone, and combination of compound A and nicotinic acid was orally administered once per day. Four hours after final administration of the pharmaceutical agent, blood was collected under isoflurane anesthesia, and LDL-C in plasma was measured using high performance liquid chromatography by a method of Usui et al (Usui S et al. Clin Chem., 46, 63-72, 2000). Group 1: Control Group 2: 0.1 mg/kg of compound A […] Group 4: 0.1 mg/kg of compound A and 100 mg/kg of nicotinic acid Results were presented by an average value±standard deviation. Comparison between the control group and each of the pharmaceutical agent administration groups was performed by a multiple comparison test of Dunnett, and a risk rate of less than 5% was determined to have a significant difference.

As for `CC[C@@H](Oc1cccc(CN(CCCOc2ccc(OC)cc2)c2nc3ccccc3o2)c1)C(=O)O` [Compound A, (R)-2-[3-[[N-(benzoxazol-2-yl)-N-3-(4-methoxyphenoxy)propyl]aminomethyl]phenoxy] butyric acid], the “effect on LDL-C in plasma” value is listed as “did not exhibit a clear effect on LDL-C”.
Under `O=C(O)c1cccnc1` [nicotinic acid, pyridine-3-carboxylic acid] stands “did not exhibit a clear effect on LDL-C”.
